Key:
[1] = system: ascorbate/Fe²⁺-dependent lipid peroxidation; experiment: Ascorbate/Fe²⁺-dependent lipid peroxidation (2-thiobarbituric acid-reactive material); assay type: biochemical; conditions: concentration required to inhibit lipid peroxidation by 50%; 200 µg/ml soy bean phospholipid, 10 µM iron, 100 µM ascorbic acid, 0.1 M KPi pH 7.4, room temperature, 30 min
Source text: (§1) The most remarkable feature of the compounds of the invention is their efficacy as free-radical scavengers or antioxidants. An assay system measuring the concentration of the compounds of formulas (IA) and (IB) required to inhibit lipid peroxidation by 50% (IC₅₀) was used. Other assays described below are the red blood cell fragility test used for measuring membrane stabilisation by indenoindoles (Table 2), and protection by indenoindoles against cytotoxicity of N-methyl-N¹-nitro-N-nitrosoguanidine (MNNG) in rat hepatocytes (Table 3). MNNG is a highly cytotoxic agent, the mechanism of action of which may involve a radical-mediated membrane destabilization.
For the ferrous/ascorbate lipid peroxidation system, 6.25 ml of 0.1 M potassium phosphate buffer (KPi), pH 7.4, was added to 12.5 mg dried soy bean phospholipids. After flushing with argon for 2 min, the suspension was sealed with five layers of Parafilm and sonicated until the suspension was translucent. The final reaction mixture was composed of 200 µg/ml phospholipid, 10 µM FeNH₄ (SO₄)₂ or Fe(NH₄)₂(SO₄)₂, and 100 µM ascorbic acid in 0.1 M KPi (pH 7.4), and the antioxidant to be tested in acetone or DMSO. The volume of vehicle never exceeded 1% of the total volume. The reaction was initiated by the addition of ascorbic acid plus iron. The reaction was continued at room temperature in a shaking water bath for 30 min and then stopped by the addition of […] of 0.5 M butylated hydroxytoluene in DMSO. The above procedure and the subsequent determination of 2-thiobarbituric acid-reactive material is described in: Shertzer, H.G. et al, Biochem. Pharmacol. 37, 333 (1988). […]

[2] = system: red blood cells; experiment: Red blood cell fragility test (membrane stabilization, protection from osmolysis); assay type: cell-based, Rats; conditions: red blood cell fragility protective index value: linear regression slope, percentage protection against osmolysis per µM protecting agent; rat blood, absorbance at 656 nm
Source text: as §1
The membrane stabilization effect of indenoindoles was assayed by the red blood cell fragility test. Rats were anesthesized With 65 mg pentobarbital per kg body weight by i.p. injection. Blood samples were removed into a heparinized syringe from the left ventricle and diluted 20-fold with buffer containing 140 mM NaCl, 10 mM sodium citrate and 5 mM glucose (pH 7.4) at 0°C. Diluted blood was kept on ice. A 0.75 ml aliquot of blood was added to a 4 ml cuvette containing 10 µl DMSO or 10 µl of the antioxidant dissolved in DMSO vehicle. After 1 min of gentle swirling, 0.75 ml of 0.9 % NaCl or H₂O were added to the cuvette by forceful pipetting, and the absorbance at 656 nm was recorded with a Beckman DU-70 spectrophotometer. When H₂O was added in the absence of a stabilizing agent, absorbance decreased wtihin 15 sec to 0.8. Addition of NaCl instead of H₂O gave a time-independent absorbance of 2.2. In the presence of increasing concentrations of stabilizing chemicals, the absorbance decrease observed after the addition of water was diminished. The % protection from osmolysis was obtained from the equation [E(2.2- 0.8) - A/2.2-0.8)] x 100% [formula] , where A=2.2 minus the absor bance decrease when water is added in the presence of a known concentration of chemical. The % protection is then plotted against several concentrations of the chemical being treated. The red blood cell fragility protective index value (RBC-PIV) is the linear regression slope of this plot, expressed as the percentage protection against osmolysis per µM protecting agent. […]

[3] = system: rat hepatocytes; experiment: Protection against cytotoxic effects of MNNG in hepatocytes (trypan blue exclusion); assay type: cell-based, male Sprague-Dawley rats; conditions: Hepatocyte, concentration of compound required to extend by 1 hour the time needed for MNNG (0.5 mM) to kill 50 % of the viable cells, read-out: IC₅₀
Source text: as §1
The protective effects of indenoindoles on MNNG-induced cytotoxicity was assayed with rat hepatocytes. Hepatocytes were prepared from male Sprague-Dawley rats by collagenase treatment as originally described by Zahlten and Stratman (Zahlten, R.N. and Stratman, F.W., Arch. Biochem. Biophys. 163, 600 (1988)), as modified by Reitman et al (Reitman, F.A., Shertzer, H.G. and Berger, M.L., Biochem. Pharmacol. 37,3183 (1988)). In order to improve viability, cells were centrifuged through 0.508 g/ml Percoll (Pharmacia AB, Uppsala, Sweden) in 137 mM NaCl, 8.1 mM Na₂HPO₄ and 1.5 mM KH₂PO₄ (pH 7.4). Putative protecting agents were added to the cells as solutions in DMSO, with the final concentration of DMSO never exceeding 5 µl/ml of cell suspension. MNNG was added to a concentration of 0.5 mM as a solution in ethanol, giving a final concentration of ethanol of 1%; ethanol alone was by itself without effect. Viability was determined as the percentage of cells that excluded 0.2 % trypan blue. Values are the concentration of compound required to extend by 1 hour the time needed for MNNG to kill 50 % of the viable cells.

SMILES | pIC₅₀ [1] | RBC-PIV [2] | IC50 [3]
Cc1ccc2c(c1)C1Cc3ccccc3C1N2C (stereo not drawn) [5,8-Dimethyl-THII, cis-4b,5,9b,10-Tetrahydro-5,8-dimethylindenol[1,2-b]indole] | 6.4 | – | –
COc1ccc2c(c1)[C@H]1Cc3ccccc3[C@H]1N2 (relative stereo) [8-Methoxy-THII, cis-4b,5,9b,10-Tetrahydro-8-methoxyindeno[1,2-b]indole] | – | 0.21 %/µM | –
c1ccc2c(c1)C[C@@H]1c3ccccc3N[C@H]21 (relative stereo) [THII, cis-4b,5,9b,10-Tetrahydroindeno[1,2-b]indole] | 6.9 | 0.41 %/µM | 2200 nM
Cc1ccc2c(c1)[C@@]1(C)Cc3ccccc3[C@@]1(C)N2 (relative stereo) [4b,8,9b-Trimethyl-THII, cis 4b,5,9b,10-Tetrahydro-4b,8,9b-trimethylindeno[1,2-b]indole] | 7.6 | – | –
COc1ccc2c(c1)[C@H]1Cc3c(cc(C)c(OC)c3C)[C@H]1N2 (relative stereo) [2,8-Dimethoxy-1,3,dimethyl-THII, cis-4b,5,9b,10-Tetrahydro-2,8-dimethoxy-1,3-dimethylindeno[1,2-b]indole] | 8.1 | – | –
CC(C)c1ccc2c(c1)[C@H]1Cc3ccccc3[C@H]1N2 (relative stereo) [8-Isopropyl-THII, cis-4b,5,9b,10-Tetrahydro-8-iso-propylindeno[1,2-b]indole] | 7.3 | – | –
CC(C)c1ccc2c(c1)[C@H]1Cc3ccccc3[C@@]1(C)N2 (relative stereo) [8-Isopropyl-4b-methyl-THII, cis-4b,5,9b,10-Tetrahydro-4b-methyl-8-isopropylindeno-[1,2-b]indole] | 7.7 | – | –
Fc1ccc2c(c1)[C@H]1Cc3ccccc3[C@H]1N2 (relative stereo) [8-Fluoro-THII, cis-4b,5,9b,10-Tetrahydro-8-fluoroindeno[1,2-b]indole] | 7.5 | – | –
Cc1cc2c(c(C)c1O)C[C@@H]1c3ccccc3N[C@H]21 (relative stereo) [2-Hydroxy-1,3-dimethyl-THII, cis-4b,5,9b,10-Tetrahydro-2-hydroxy-1,3-dimethylindeno[1,2-b]indole] | 7.9 | – | –
CC(C)c1ccc2c(c1)[C@@H]1c3ccccc3C[C@@H]1N2 (relative stereo) [9-Isopropyl-iso-THII, cis-5,5a,6,10b-Tetrahydro-9-isopropylindeno[2,1-b]indole] | 7.4 | – | –
CC1(C)c2ccccc2[C@H]2Nc3ccccc3[C@H]21 (relative stereo) [10,10-Dimethyl-THII, cis-4b,5,9b,10-Tetrahydro-10,10-dimethylindeno [1,2-b] indole] | 6.9 | – | –
COc1ccc2c(c1)[C@@H]1c3ccccc3C[C@@H]1N2 (relative stereo) [9-Methoxy-iso-THII, cis-5,5a,6,10b-Tetrahydro-9-methoxyindeno[2,1-b]indole] | 7.7 | – | –
Cc1cc(C)c2c(c1)[C@@]1(C)Cc3ccccc3[C@@]1(C)N2 (relative stereo) [4b,6,8,9b-Tetramethyl-THII, cis-4b,5,9b,10-Tetrahydro-4b,6,8,9b-tetramethylindeno[1,2-b]indole] | 7.4 | – | –
COc1ccc2c(c1)C1Cc3ccccc3C1N2C (stereo not drawn) [8-Methoxy-5-methyl-THII, cis-4b.5.9b,10-Tetrahydro-8-methoxy-5-methylindeno[1,2-b]indole] | 7.0 | – | –
CC12Cc3ccccc3C1(C)Nc1ccccc12 (stereo not drawn) [4b,9b-Dimethyl-THII, cis-4b,5,9b,10-Tetrahydro-4b,9b-dimethylindenol[1.2-b]indole] | 7.2 | – | –
CC(C)c1ccc2c(c1)[C@@]1(C)Cc3ccccc3[C@@]1(C)N2 (relative stereo) [8-Isopropyl-4b,9b-dimethyl, cis-4b,5,9b,10-Tetrahydro-4b,9b-dimethyl-8-isopropylindeno[1,2-b]indole] | 7.7 | – | –
COc1c(C)cc2c(c1C)C[C@@H]1c3ccccc3N[C@H]21 (relative stereo) [2-Methoxy-1,3-dimethyl-THII, cis-4b,5,9b,10-Tetrahydro-2-methoxy-1,3-dimethylindeno[1,2-b]indole] | 7.2 | – | –
CN1c2ccccc2[C@H]2Cc3ccccc3[C@H]21 (relative stereo) [5-Methyl-THII, cis-4b,5,9b,10-Tetrahydro-5-methylindeno[1,2-b]indole] | 6.1 | 0.64 %/µM | 2200 nM
CCN(CC)c1ccc2c(c1)C1Cc3ccccc3C1N2CC (stereo not drawn) [8-Diethylamino-5-ethyl-THII, cis-4b,5,9b,10-Tetrahydro-5-ethyl-8-(N.N-diethylamino)-indeno[1,2-b]indole] | 7.1 | – | –
Cc1ccc2c(c1)[C@H]1Cc3ccccc3[C@H]1N2 (relative stereo) [8-Methyl-THII, cis-4b,5,9b,10-Tetrahydro-8 methylindeno[1,2-b]indole] | 7.1 | – | –
COc1cc(C)c2c(c1)[C@H]1Cc3ccccc3[C@H]1N2 (relative stereo) [8-Methoxy-6-methyl-THII, cis-4b,5,9b,10-Tetrahydro-8-methoxy 6-methylindeno[1,2-b]indole] | 8.0 | – | –
Cc1c(C)c2c(c(C)c1O)CCC(C)(CCCC(C)CCCC(C)CCCC(C)C)O2 (stereo not drawn) [α-Tocopherol (Vitamin E), α-Tocopherol, reference compound] | 5.0 | 0.10 %/µM | –
CC(=O)Oc1c(C)c(C)c2c(c1C)CCC(C)(CCCC(C)CCCC(C)CCCC(C)C)O2 (stereo not drawn) [α-Tocopheryl-acetate, reference compound] | – | – | 161000 nM
CN1c2ccccc2[C@H]2c3ccccc3C[C@H]21 [6-Methyl-iso-THII, cis-5,5a,6,10b-Tetrahydro-methylindeno[2.1-b]indole] | 6.1 | – | –
Cc1ccc2c(c1)[C@@]1(C)Cc3ccccc3[C@@]1(C)N2C (relative stereo) [4b,5,8,9b-Tetramethyl-THII, cis-4b,5,9b,10-tetrahydro-4b,5,8,9b-tetramethylindeno[1,2-b]indole] | 6.8 | – | –
CCN(CC)c1ccc2c(c1)C[C@@H]1c3ccccc3N[C@H]21 (relative stereo) [2-Diethylamino-THII, cis-4b,5,9b,10-Tetrahydro-2-(N,N-Diethylamino)-indeno[1,2-b]indole] | 7.2 | – | –
CC12Nc3ccccc3C1Cc1ccccc12 (stereo not drawn) [4b-Methyl-THII, cis-4b,5,9b,10-Tetrahydro-4b-methylindeno[1,2-b]inole] | 7.1 | – | –
CC12Cc3ccccc3C1Nc1ccccc12 (stereo not drawn) [9b-Methyl-THII, cis-4b,5,9b,10-Tetrahydro-9b-methylindeno [1.2-b]-indole] | 7.0 | – | –
Cc1cc(C)c2c(c1)[C@H]1Cc3ccccc3[C@H]1N2 (relative stereo) [6,8-Dimethyl-THII, cis-4b,5,9b,10-Tetrahydro-6,8-dimethylindeno[1,2-b]indole] | 7.3 | – | –
c1ccc2c(c1)C[C@H]1Nc3ccccc3[C@@H]21 (relative stereo) [iso-THII, cis-5,5a,6,10b-Tetrahydroindeno[2,1-b]indole] | 6.9 | 0.38 %/µM | 2000 nM
